Results as given in patent US20250073249A1, “STEROID COMPOUND, AND PREPARATION METHOD THEREFOR AND USE THEREOF” (SHANGHAI INSTITUTE OF MATERIA MEDICA, CHINESE ACADEMY OF …, priority 2022, published 2025).

Experiments:
Assay type in all cases: cell-based
[1] = system: 22RV1 prostate cancer cells; experiment: Anti-proliferative activity against resistant 22RV1 cells expressing AR-V7; details: Homo sapiens; 22RV1 cells expressing AR-V7 splice variant; read-out: Antiproliferative activity IC50
Procedure: The cells were then digested with trypsin and counted using an automated cell counter to determine cell density. The cell suspension was diluted to the desired density in growth medium. Subsequently, 100 μL of the cell suspension was seeded into 96-well plates and incubated at 37° C. with 5% CO2 for 24 hours. 10 μL of drug solution (including 3-fold serial dilutions of compounds or DMSO) was added to each well, and the plates were incubated at 37° C. with 5% CO2 for 6 days. Prior to measurement, the assay plates were equilibrated to room temperature. 40 μL of CellTiter-Glo® reagent was added to each well. The plates were mixed on an orbital shaker for 2 minutes to induce cell lysis. After incubation at room temperature for 60 minutes to stabilize the luminescence signal, the plates were read on an Envision plate reader.
The experimental procedure was essentially the same as that for LNCaP cells.

AR(T877A) = target: T1, AR(T877A) (Homo sapiens, UniProt P10275, T878A); experiment: Mutant AR antagonistic activity test, T877A (reporter gene in HEK293 cells); details: for IC50: HEK293 cells, DHT 10 nM, 24 hours, read-out: T877A IC50(nM) 1st gen AR antagonist resistant mutation
T1 construct: expressed in transfected cells; host or cells: HEK293
T1 sequence (P10275 1-920 T878A): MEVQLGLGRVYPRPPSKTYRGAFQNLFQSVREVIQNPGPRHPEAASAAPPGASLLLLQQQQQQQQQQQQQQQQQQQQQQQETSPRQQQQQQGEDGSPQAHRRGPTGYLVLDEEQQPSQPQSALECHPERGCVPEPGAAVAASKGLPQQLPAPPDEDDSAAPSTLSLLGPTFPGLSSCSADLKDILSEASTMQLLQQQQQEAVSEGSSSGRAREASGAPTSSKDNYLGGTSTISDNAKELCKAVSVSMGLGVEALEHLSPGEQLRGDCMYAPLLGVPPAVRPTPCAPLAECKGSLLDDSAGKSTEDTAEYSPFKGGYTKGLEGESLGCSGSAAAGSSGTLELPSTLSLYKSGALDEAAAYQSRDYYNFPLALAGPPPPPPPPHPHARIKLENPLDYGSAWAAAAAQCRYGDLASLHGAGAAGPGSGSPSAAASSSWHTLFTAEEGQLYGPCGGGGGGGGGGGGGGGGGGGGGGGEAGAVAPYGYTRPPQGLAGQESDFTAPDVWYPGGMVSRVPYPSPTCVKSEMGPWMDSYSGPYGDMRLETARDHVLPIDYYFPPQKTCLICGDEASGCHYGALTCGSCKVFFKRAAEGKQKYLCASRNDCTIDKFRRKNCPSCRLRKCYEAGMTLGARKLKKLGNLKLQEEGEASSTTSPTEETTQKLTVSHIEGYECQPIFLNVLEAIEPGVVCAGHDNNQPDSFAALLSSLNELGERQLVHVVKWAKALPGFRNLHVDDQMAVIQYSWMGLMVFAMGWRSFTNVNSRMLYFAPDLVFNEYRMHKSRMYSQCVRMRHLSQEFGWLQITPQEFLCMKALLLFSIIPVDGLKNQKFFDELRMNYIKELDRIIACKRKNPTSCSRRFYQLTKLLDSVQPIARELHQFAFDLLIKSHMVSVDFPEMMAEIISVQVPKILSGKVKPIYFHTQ
Procedure: HEK293 cells were cultured in DMEM supplemented with 10% FBS and 1% GlutaMax at 37° C. with 5% CO2. The day before transfection, the medium was changed to DMEM containing 10% charcoal-stripped FBS and 1% GlutaMax. […] The cell suspension was diluted with cell seeding solution, and the transfection reagent was added to achieve 500,000 cells/mL. Subsequently, 90 μL of cell suspension was seeded into each well of the assay plate. The next day, compounds were prepared: starting from 8 mM, 3-fold serial dilutions were performed in DMSO for a total of 8 points, then 500 nL was transferred to the compound plate using Echo. The compounds were then diluted with 40 μL of medium to 10× final concentration, and 10 μL was transferred to the cell plate and incubated at 37° C. for 30 minutes. Subsequently, 10 nL of DHT at a final concentration of 10 nM was transferred to each well of the assay plate using TECAN. After 24 hours of incubation, 100 μL of Steady-Glo was added to the assay plate and read on an Envision reader. Data were determined and analyzed using GraphPad Prism.

AR = target: T2, AR (Homo sapiens, UniProt P10275, T878A); experiment: In vitro AR degradation activity test in LNCaP cells (ELISA, OD450); details: for DC50: LNCaP cells, 24 hours; for AR degradation activity, improvement compared to Galeterone: ratio to Galeterone DC50
T2 construct: endogenous in cells; host or cells: LNCaP
T2 sequence (P10275 1-920 T878A): T1 sequence (P10275 1-920 T878A)
Method in brief: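 AR in protein-normalized lysates was quantified by sandwich ELISA with HRP detection at OD450. Degradation rate (%) was computed from OD450 max/min controls, and IC50 was derived from it.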

Structure (SMILES) | IC50 [1] | IC50 (AR(T877A)) | DC50 (AR) | AR degradation activity, improvement compared to Galeterone (AR) | T877A antagonistic activity, fold improvement compared to enzalutamide (AR(T877A); ratio to enzalutamide IC50)
Cc1cn(C2=CCC3C4CC=C5C[C@@H](NC(=O)c6ccncc6)CC[C@]5(C)C4CC[C@]23C)cn1 (stereo partly drawn) [Compound 14, N-((3S,10R,13S)-10,13-dimethyl-17-(4-methyl-1H-imidazol-1-yl)-2,3,4,7,8,9,10,11,12,13,14,15-dodecahydro-1H-cyclopenta[a]phenanthren-3-yl)isonicotinamide] | 591 nM | 209 nM |  |  | 
Cc1cn(C2=CCC3C4CC=C5C[C@@H](NC(=O)c6ccc(F)cc6)CC[C@]5(C)C4CC[C@]23C)cn1 (stereo partly drawn) [Compound 33, N-((3S,10R,13S)-17-(4-methyl-1H-imidazol-1-yl)-10,13-dimethyl-2,3,4,7,8,9,10,11,12,13,14,15-dodecahydro-1H-cyclopenta[a]phenanthren-3-yl)-4-fluorobenzamide] | 624 nM | 79.8 nM | 1280 nM | 8.1 times | 1.4 fold
Cc1cn(C2=CCC3C4CC=C5C[C@@H](NC(=O)c6ccc(S(C)(=O)=O)cc6)CC[C@]5(C)C4CC[C@]23C)cn1 (stereo partly drawn) [Compound 35, N-((3S,10R,13S)-17-(4-methyl-1H-imidazol-1-yl)-10,13-dimethyl-2,3,4,7,8,9,10,11,12,13,14,15-dodecahydro-1H-cyclopenta[a]phenanthren-3-yl)-4-(methylsulfonyl)benzamide] | 651 nM | 462 nM | 1560 nM | 6.7 times | 
Cc1cn(C2=CCC3C4CC=C5C[C@@H](NC(=O)c6ccc(F)cc6F)CC[C@]5(C)C4CC[C@]23C)cn1 (stereo partly drawn) [Compound 37, N-((3S,10R,13S)-17-(4-methyl-1H-imidazol-1-yl)-10,13-dimethyl-2,3,4,7,8,9,10,11,12,13,14,15-dodecahydro-1H-cyclopenta[a]phenanthren-3-yl)-2,4-difluorobenzamide] | 452 nM | 281 nM | 1680 nM | 6.2 times | 
